# Measured values published in the NIST ThermoML archive (doi:10.1016/j.fluid.2010.10.018).
# ± gives the expanded uncertainty stated by the source.
# Conditions: 101.33 kPa, Liquid
# [1] = 278 K, Concentric cylinders viscometry
# [2] = 283 K, Concentric cylinders viscometry
# [3] = 283 K, Falling or rolling sphere viscometry
# [4] = 288 K, Concentric cylinders viscometry
# [5] = 293 K, Concentric cylinders viscometry
# [6] = 293 K, Falling or rolling sphere viscometry
# [7] = 298 K, Concentric cylinders viscometry
# [8] = 303 K, Concentric cylinders viscometry
# [9] = 308 K, Concentric cylinders viscometry
# [10] = 313 K, Concentric cylinders viscometry
# [11] = 313 K, Falling or rolling sphere viscometry
# [12] = 318 K, Concentric cylinders viscometry
# [13] = 323 K, Concentric cylinders viscometry
# [14] = 328 K, Concentric cylinders viscometry
# [15] = 333 K, Concentric cylinders viscometry
# [16] = 333 K, Falling or rolling sphere viscometry
# [17] = 338 K, Concentric cylinders viscometry
# [18] = 343 K, Concentric cylinders viscometry
# [19] = 348 K, Concentric cylinders viscometry
# [20] = 353 K, Concentric cylinders viscometry
# [21] = 353 K, Falling or rolling sphere viscometry
# [22] = 358 K, Concentric cylinders viscometry
# [23] = 373 K, Falling or rolling sphere viscometry
# [24] = 393 K, Falling or rolling sphere viscometry
# [25] = 363 K, Concentric cylinders viscometry
SMILES,viscosity [1] [mPa·s],viscosity [2] [mPa·s],viscosity [4] [mPa·s],viscosity [5] [mPa·s],viscosity [6] [mPa·s],viscosity [7] [mPa·s],viscosity [8] [mPa·s],viscosity [9] [mPa·s],viscosity [10] [mPa·s],viscosity [11] [mPa·s],viscosity [12] [mPa·s],viscosity [13] [mPa·s],viscosity [14] [mPa·s],viscosity [15] [mPa·s],viscosity [16] [mPa·s],viscosity [17] [mPa·s],viscosity [18] [mPa·s],viscosity [19] [mPa·s],viscosity [20] [mPa·s],viscosity [22] [mPa·s],other results
CCn1cc[n+](C)c1.O=S(=O)([N-]S(=O)(=O)C(F)(F)F)C(F)(F)F,76.05 ± 3.9,60.15 ± 3.1,48.47 ± 2.5,39.71 ± 2,39.54 ± 2,33 ± 1.7,27.78 ± 1.4,23.66 ± 1.2,20.37 ± 1,20.49 ± 1.1,17.69 ± 0.9,15.5 ± 0.79,13.68 ± 0.7,12.16 ± 0.62,12.42 ± 0.64,10.87 ± 0.56,9.784 ± 0.5,8.848 ± 0.45,8.041 ± 0.41,7.34 ± 0.38,viscosity [3]: 59.8 ± 3.1 mPa·s; viscosity [21]: 8.036 ± 0.41 mPa·s
CCCn1cc[n+](C)c1.O=S(=O)([N-]S(=O)(=O)C(F)(F)F)C(F)(F)F,122.17 ± 6.4,92.6 ± 4.8,71.78 ± 3.7,56.78 ± 2.9,56.4 ± 2.9,45.75 ± 2.3,37.43 ± 1.9,31.07 ± 1.6,26.13 ± 1.3,26.17 ± 1.3,22.23 ± 1.1,19.11 ± 0.98,16.58 ± 0.85,14.5 ± 0.74,14.82 ± 0.76,12.79 ± 0.65,11.35 ± 0.58,10.14 ± 0.52,9.118 ± 0.47,8.24 ± 0.42,viscosity [21]: 9.251 ± 0.48 mPa·s; viscosity [23]: 6.32 ± 0.33 mPa·s
CCCCCCCCCCn1cc[n+](C)c1.O=S(=O)([N-]S(=O)(=O)C(F)(F)F)C(F)(F)F,403.2 ± 23,287.62 ± 16,210.53 ± 11,157.52 ± 8.2,159.41 ± 9.8,120.18 ± 6.2,93.45 ± 4.8,73.92 ± 3.7,59.37 ± 3,60.51 ± 3.1,48.36 ± 2.4,39.91 ± 2,33.32 ± 1.7,28.12 ± 1.4,29.3 ± 1.5,23.97 ± 1.2,20.62 ± 1,17.88 ± 0.9,15.63 ± 0.79,13.75 ± 0.69,viscosity [3]: 292.44 ± 22 mPa·s; viscosity [21]: 16.14 ± 0.82 mPa·s; viscosity [23]: 10 ± 0.51 mPa·s; viscosity [24]: 6.8 ± 0.34 mPa·s
CCCC[n+]1ccn(C)c1.O=S(=O)([N-]S(=O)(=O)C(F)(F)F)C(F)(F)F,137.62 ± 7.1,104.14 ± 5.3,80.16 ± 4.1,62.99 ± 3.2,63.05 ± 3.2,50.62 ± 2.5,41.12 ± 2.1,33.89 ± 1.7,28.28 ± 1.4,28.63 ± 1.5,23.92 ± 1.2,20.45 ± 1,17.66 ± 0.89,15.38 ± 0.77,16 ± 0.81,13.5 ± 0.68,11.93 ± 0.6,10.61 ± 0.53,9.501 ± 0.48,8.553 ± 0.43,viscosity [21]: 9.911 ± 0.5 mPa·s; viscosity [23]: 6.548 ± 0.33 mPa·s; viscosity [24]: 4.785 ± 0.24 mPa·s
CCCCCCCCCCCCCCn1cc[n+](C)c1.O=S(=O)([N-]S(=O)(=O)C(F)(F)F)C(F)(F)F,,,,,,,,,98.04 ± 5,,78.06 ± 3.9,63.09 ± 3.2,51.68 ± 2.6,42.83 ± 2.2,,35.87 ± 1.8,30.36 ± 1.5,25.93 ± 1.3,22.33 ± 1.1,19.38 ± 0.98,viscosity [25]: 16.95 ± 0.85 mPa·s
CCCCCCCn1cc[n+](C)c1.O=S(=O)([N-]S(=O)(=O)C(F)(F)F)C(F)(F)F,235 ± 13,182.82 ± 9.6,136.42 ± 7.1,104.17 ± 5.3,,81.11 ± 4.1,64.28 ± 3.2,51.75 ± 2.6,42.28 ± 2.1,,34.99 ± 1.8,29.3 ± 1.5,24.81 ± 1.2,21.2 ± 1.1,,18.3 ± 0.92,15.92 ± 0.8,13.95 ± 0.7,12.31 ± 0.62,10.93 ± 0.55,viscosity [25]: 9.753 ± 0.49 mPa·s
CCCCCCCCn1cc[n+](C)c1.O=S(=O)([N-]S(=O)(=O)C(F)(F)F)C(F)(F)F,297.03 ± 16,214.79 ± 11,159.11 ± 8.3,120.46 ± 6.2,,93.05 ± 4.7,73.2 ± 3.7,58.53 ± 2.9,47.5 ± 2.4,,39.09 ± 2,32.56 ± 1.6,27.43 ± 1.4,23.35 ± 1.2,,20.06 ± 1,17.38 ± 0.88,15.18 ± 0.76,13.35 ± 0.67,11.83 ± 0.6,
CCCCCCCCC[n+]1ccn(C)c1.O=S(=O)([N-]S(=O)(=O)C(F)(F)F)C(F)(F)F,,,,,,,,,,,,,,,,,,,,,"viscosity (278 K, Capillary tube (Ostwald / Ubbelohde) method): 348.2 ± 20 mPa·s; viscosity (283 K, Capillary tube (Ostwald / Ubbelohde) method): 249.7 ± 14 mPa·s; viscosity (288 K, Capillary tube (Ostwald / Ubbelohde) method): 183.88 ± 10 mPa·s; viscosity (293 K, Capillary tube (Ostwald / Ubbelohde) method): 138.55 ± 7.3 mPa·s; viscosity (298 K, Capillary tube (Ostwald / Ubbelohde) method): 106.41 ± 5.5 mPa·s; viscosity (303 K, Capillary tube (Ostwald / Ubbelohde) method): 83.35 ± 4.2 mPa·s; viscosity (308 K, Capillary tube (Ostwald / Ubbelohde) method): 66.2 ± 3.3 mPa·s; viscosity (313 K, Capillary tube (Ostwald / Ubbelohde) method): 53.43 ± 2.7 mPa·s; viscosity (318 K, Capillary tube (Ostwald / Ubbelohde) method): 43.76 ± 2.2 mPa·s; viscosity (323 K, Capillary tube (Ostwald / Ubbelohde) method): 36.28 ± 1.8 mPa·s; viscosity (328 K, Capillary tube (Ostwald / Ubbelohde) method): 30.43 ± 1.5 mPa·s; viscosity (333 K, Capillary tube (Ostwald / Ubbelohde) method): 25.77 ± 1.3 mPa·s; viscosity (338 K, Capillary tube (Ostwald / Ubbelohde) method): 22.12 ± 1.1 mPa·s; viscosity (343 K, Capillary tube (Ostwald / Ubbelohde) method): 19.09 ± 0.96 mPa·s; viscosity (348 K, Capillary tube (Ostwald / Ubbelohde) method): 16.61 ± 0.84 mPa·s; viscosity (353 K, Capillary tube (Ostwald / Ubbelohde) method): 14.53 ± 0.73 mPa·s; viscosity (358 K, Capillary tube (Ostwald / Ubbelohde) method): 12.82 ± 0.65 mPa·s; viscosity (363 K, Capillary tube (Ostwald / Ubbelohde) method): 11.4 ± 0.57 mPa·s"
CCCCCn1cc[n+](C)c1.O=S(=O)([N-]S(=O)(=O)C(F)(F)F)C(F)(F)F,164.73 ± 8.6,123.09 ± 6.3,93.65 ± 4.8,72.76 ± 3.7,78.44 ± 4.1,57.81 ± 2.9,46.38 ± 2.3,37.92 ± 1.9,31.43 ± 1.6,33.94 ± 1.7,26.38 ± 1.3,22.4 ± 1.1,19.2 ± 0.97,16.6 ± 0.84,18.52 ± 0.94,14.48 ± 0.73,12.73 ± 0.64,11.27 ± 0.57,10.04 ± 0.51,8.996 ± 0.45,viscosity [3]: 133.33 ± 7.8 mPa·s; viscosity [21]: 10.89 ± 0.55 mPa·s; viscosity [23]: 7.19 ± 0.36 mPa·s; viscosity [24]: 5.15 ± 0.26 mPa·s
CCCCCCCCCCCCn1cc[n+](C)c1.O=S(=O)([N-]S(=O)(=O)C(F)(F)F)C(F)(F)F,,384.51 ± 22,277.46 ± 15,205 ± 11,,154.33 ± 8.1,118.68 ± 6.1,93.71 ± 4.8,74.49 ± 3.8,,60.08 ± 3,49.11 ± 2.5,40.64 ± 2,34.01 ± 1.7,,28.76 ± 1.4,24.55 ± 1.2,21.14 ± 1.1,18.35 ± 0.92,16.05 ± 0.81,viscosity [25]: 14.12 ± 0.71 mPa·s
CCCCCC[n+]1ccn(C)c1.O=S(=O)([N-]S(=O)(=O)C(F)(F)F)C(F)(F)F,212.3 ± 12,155.94 ± 8.2,117.29 ± 6.1,90.13 ± 4.6,87.84 ± 4.7,70.61 ± 3.6,56.3 ± 2.9,45.61 ± 2.3,37.47 ± 1.9,37.08 ± 1.9,31.19 ± 1.6,26.25 ± 1.3,22.35 ± 1.1,19.2 ± 0.98,19.29 ± 0.99,16.65 ± 0.85,14.55 ± 0.74,12.81 ± 0.65,11.35 ± 0.58,10.13 ± 0.52,viscosity [21]: 11.48 ± 0.59 mPa·s; viscosity [23]: 7.46 ± 0.38 mPa·s; viscosity [24]: 5.28 ± 0.27 mPa·s
